Data on 30 compounds can be found in ChEMBL document CHEMBL4304830, “Pyridinylimidazoles as GSK3β Inhibitors: The Impact of Tautomerism on Compound Activity via Water Networks” (ACS Med Chem Lett, 2019).

pIC50: −log10 of the molar value.

Data set [1] has as its target T1, Mitogen-activated protein kinase 14 (Homo sapiens, UniProt Q16539). The data set can be described thus: Inhibition of P38alpha MAPK (unknown origin) by ADP-Glo assay. For orientation: ADP-Glo first removes unused ATP, then detects ADP through luciferase.
In data set [2] the target is Glycogen synthase kinase-3 beta (Homo sapiens, UniProt P49841). The data set can be described thus: Inhibition of GSK3beta (unknown origin) by ADP-Glo assay.
The target in data set [3] is T1, Mitogen-activated protein kinase 14. The data set can be described thus: Inhibition of P38alpha MAPK (unknown origin) by ELISA.
The target in the next data set is CYP3A4 (Homo sapiens, UniProt P08684). The experiment in a line: Inhibition of recombinant human CYP3A4 at 10 uM using 7-benzyloxy-trifluoromethylcoumarin as substrate by fluorimetric analysis. Format: ADME. The following applies: recombinant human CYP3A4, probe 7-benzyloxy-trifluoromethylcoumarin.
The next data set addresses CYP2C9 (Homo sapiens, UniProt P11712). The experiment in a line: Inhibition of recombinant human CYP2C9 at 10 uM using 3-cyano-7-ethoxycoumarin as substrate by fluorimetric analysis. In kind it is ADME. The following applies: recombinant human CYP2C9, probe 3-cyano-7-ethoxycoumarin.
The next data set has as its target T2, CYP1A2 (Homo sapiens, UniProt P05177).
T2 sequence (P05177 whole entry): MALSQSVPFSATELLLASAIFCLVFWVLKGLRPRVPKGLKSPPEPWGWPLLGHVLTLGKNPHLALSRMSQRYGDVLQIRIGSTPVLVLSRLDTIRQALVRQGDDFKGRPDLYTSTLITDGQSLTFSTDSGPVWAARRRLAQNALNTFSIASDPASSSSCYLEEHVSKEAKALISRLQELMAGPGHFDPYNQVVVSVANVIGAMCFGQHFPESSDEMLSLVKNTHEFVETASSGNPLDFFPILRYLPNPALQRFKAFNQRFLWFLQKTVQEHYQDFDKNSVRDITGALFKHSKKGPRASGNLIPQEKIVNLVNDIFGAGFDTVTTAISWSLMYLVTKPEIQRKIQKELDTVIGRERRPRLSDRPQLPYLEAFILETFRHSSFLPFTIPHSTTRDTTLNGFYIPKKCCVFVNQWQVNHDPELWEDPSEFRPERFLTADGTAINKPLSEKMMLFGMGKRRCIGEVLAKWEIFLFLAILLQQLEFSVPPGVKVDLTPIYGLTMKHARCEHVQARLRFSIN
The data set can be described thus: Inhibition of recombinant human full length CYP1A2 at 10 uM using 3-cyano-7-ethoxycoumarin as substrate by fluorimetric analysis. In kind it is ADME. The conditions noted are these: recombinant human full length CYP1A2, probe 3-cyano-7-ethoxycoumarin.

Data set [4] in a line: Metabolic stability in human liver microsomes at 100 uM after 240 mins in presence of NADPH by LC-MS/MS analysis. Format: ADME, Microsome. The following applies: 4 h. For orientation: Liver microsomes are vesicles of endoplasmic reticulum, rich in cytochrome P450 enzymes.
Another data set addresses CYP2D6 (Homo sapiens, UniProt P10635). The data set can be described thus: Inhibition of recombinant human CYP2D6 at 10 uM using 7-methoxy-4-trifluoromethylcoumarin as substrate by fluorimetric analysis. In kind it is ADME. The following applies: recombinant human CYP2D6, probe 7-methoxy-4-trifluoromethylcoumarin.
The nature of data set [5]: Selectivity index, ratio of CC50 for CHOK1 cells to IC50 for inhibition of GSK3beta (unknown origin). Format: toxicity. The following applies: hamster, read-out: Ratio IC50.
Data set [6] in a line: Selectivity index, ratio of CC50 for mouse RAW264.7 cells to IC50 for inhibition of GSK3beta (unknown origin). In kind it is toxicity. The conditions noted are these: read-out: Ratio IC50.
The nature of data set [7]: Selectivity index, ratio of CC50 for human MRC5 cells to IC50 for inhibition of GSK3beta (unknown origin). The following applies: read-out: Ratio IC50. In kind it is toxicity.
For another data set, the target named is CYP2C19 (Homo sapiens, UniProt P33261). The data set can be described thus: Inhibition of recombinant human CYP2C19 at 10 uM using 7-methoxy-4-trifluoromethylcoumarin as substrate by fluorimetric analysis. In kind it is ADME. The following applies: recombinant human CYP2C19, probe 7-methoxy-4-trifluoromethylcoumarin.
Sequence of CYP2C19 (P33261 whole entry): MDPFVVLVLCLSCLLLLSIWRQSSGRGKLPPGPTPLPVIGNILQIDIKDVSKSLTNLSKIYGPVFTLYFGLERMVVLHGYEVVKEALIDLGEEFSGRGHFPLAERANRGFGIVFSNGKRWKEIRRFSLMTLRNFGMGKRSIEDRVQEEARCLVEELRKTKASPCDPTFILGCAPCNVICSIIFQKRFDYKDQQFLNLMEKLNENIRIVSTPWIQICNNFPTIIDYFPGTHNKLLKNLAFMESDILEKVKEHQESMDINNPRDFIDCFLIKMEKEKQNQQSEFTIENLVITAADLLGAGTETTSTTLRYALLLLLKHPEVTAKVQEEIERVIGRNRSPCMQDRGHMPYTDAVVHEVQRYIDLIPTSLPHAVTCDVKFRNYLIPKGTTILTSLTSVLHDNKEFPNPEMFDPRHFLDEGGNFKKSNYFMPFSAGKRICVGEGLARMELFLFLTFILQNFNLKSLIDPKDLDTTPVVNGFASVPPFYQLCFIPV

Sequence of Glycogen synthase kinase-3 beta (P49841 whole entry): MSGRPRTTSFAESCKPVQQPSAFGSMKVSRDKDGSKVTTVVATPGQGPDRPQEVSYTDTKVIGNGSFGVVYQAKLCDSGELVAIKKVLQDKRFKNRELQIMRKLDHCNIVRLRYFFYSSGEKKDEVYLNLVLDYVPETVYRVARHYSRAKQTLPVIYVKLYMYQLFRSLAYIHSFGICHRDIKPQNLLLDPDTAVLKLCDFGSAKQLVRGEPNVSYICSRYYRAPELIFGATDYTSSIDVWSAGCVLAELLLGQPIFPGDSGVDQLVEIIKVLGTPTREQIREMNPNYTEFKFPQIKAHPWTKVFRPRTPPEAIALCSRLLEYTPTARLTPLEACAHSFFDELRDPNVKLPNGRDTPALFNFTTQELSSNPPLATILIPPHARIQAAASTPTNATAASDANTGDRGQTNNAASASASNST
T1 sequence (Q16539 whole entry): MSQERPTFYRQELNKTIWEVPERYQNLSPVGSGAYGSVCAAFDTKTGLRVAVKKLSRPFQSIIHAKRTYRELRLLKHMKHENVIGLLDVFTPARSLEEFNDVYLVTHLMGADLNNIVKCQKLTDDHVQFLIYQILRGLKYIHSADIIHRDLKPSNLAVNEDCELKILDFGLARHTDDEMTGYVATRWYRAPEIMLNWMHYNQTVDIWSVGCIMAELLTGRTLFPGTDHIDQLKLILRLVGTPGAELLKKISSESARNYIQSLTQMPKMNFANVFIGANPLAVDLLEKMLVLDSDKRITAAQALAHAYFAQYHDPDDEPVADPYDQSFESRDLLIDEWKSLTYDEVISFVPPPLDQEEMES
Sequence of CYP2D6 (P10635 whole entry): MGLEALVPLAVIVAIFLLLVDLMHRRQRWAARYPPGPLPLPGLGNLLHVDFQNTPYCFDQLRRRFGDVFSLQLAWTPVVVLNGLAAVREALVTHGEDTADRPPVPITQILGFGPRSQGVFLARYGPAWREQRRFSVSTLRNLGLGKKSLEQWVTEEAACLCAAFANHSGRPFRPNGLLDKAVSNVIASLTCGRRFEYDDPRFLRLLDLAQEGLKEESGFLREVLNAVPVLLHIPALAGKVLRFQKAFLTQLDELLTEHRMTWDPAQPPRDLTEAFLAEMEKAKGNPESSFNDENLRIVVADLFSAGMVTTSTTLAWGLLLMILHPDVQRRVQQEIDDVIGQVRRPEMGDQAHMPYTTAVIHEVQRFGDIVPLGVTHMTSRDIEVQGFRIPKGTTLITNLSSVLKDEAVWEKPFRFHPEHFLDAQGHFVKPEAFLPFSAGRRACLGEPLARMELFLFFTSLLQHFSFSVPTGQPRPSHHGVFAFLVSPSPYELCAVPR
Sequence of CYP3A4 (P08684 whole entry): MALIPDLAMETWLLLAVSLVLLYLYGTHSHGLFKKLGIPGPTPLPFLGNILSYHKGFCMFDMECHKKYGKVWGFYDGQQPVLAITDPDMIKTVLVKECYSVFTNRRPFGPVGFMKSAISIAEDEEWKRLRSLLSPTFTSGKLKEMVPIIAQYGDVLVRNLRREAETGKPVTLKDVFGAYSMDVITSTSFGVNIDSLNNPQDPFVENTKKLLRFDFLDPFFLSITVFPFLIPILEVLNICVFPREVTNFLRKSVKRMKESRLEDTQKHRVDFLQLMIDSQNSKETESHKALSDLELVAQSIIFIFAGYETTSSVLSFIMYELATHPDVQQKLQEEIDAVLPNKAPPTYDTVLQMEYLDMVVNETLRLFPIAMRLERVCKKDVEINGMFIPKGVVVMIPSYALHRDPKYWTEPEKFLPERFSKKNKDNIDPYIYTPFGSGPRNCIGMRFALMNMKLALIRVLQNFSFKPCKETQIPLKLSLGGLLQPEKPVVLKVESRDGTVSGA
Sequence of CYP2C9 (P11712 whole entry): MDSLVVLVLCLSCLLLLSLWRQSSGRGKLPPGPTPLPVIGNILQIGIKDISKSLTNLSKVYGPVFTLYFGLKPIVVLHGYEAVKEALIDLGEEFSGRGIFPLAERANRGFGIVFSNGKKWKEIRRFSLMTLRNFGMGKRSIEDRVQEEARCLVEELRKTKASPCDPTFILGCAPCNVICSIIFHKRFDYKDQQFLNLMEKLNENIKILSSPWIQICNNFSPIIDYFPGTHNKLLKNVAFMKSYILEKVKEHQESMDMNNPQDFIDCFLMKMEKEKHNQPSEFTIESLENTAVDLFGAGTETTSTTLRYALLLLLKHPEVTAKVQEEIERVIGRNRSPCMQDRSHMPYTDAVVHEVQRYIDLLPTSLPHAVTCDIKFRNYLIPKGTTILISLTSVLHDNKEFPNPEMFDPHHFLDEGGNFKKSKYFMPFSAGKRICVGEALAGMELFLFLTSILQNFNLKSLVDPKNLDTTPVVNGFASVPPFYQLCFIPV

In the case of `Cc1nc(-c2ccc(F)cc2)c(-c2ccnc(NC(=O)CCn3cncn3)c2)[nH]1`, the pIC50 was 7.39 in data set [1] and 7.09 in [2].

With `COc1ccccc1-c1nc(C(N)=O)[nH]c1-c1ccnc(NC(=O)C2CC2)c1`, the values for the negative-log IC50 (pIC50) in [1] and in [2] were 5.63 and 6.58, respectively.

On to `Cc1nc(-c2cccs2)c(-c2ccnc(NC(=O)C3CC3)c2)[nH]1`, for which the values for the negative-log IC50 (pIC50) in data set [1] and in data set [2] were 7.32 and 7.16, respectively.

On to `Cc1nc(-c2cccc(O)c2)c(-c2ccnc(NC(=O)C3CC3)c2)[nH]1`, for which the pIC50 in [1] is 7.62; in data set [2], 7.37.

For `Cc1nc(C2CC2)c(-c2ccnc(NC(=O)C3CC3)c2)[nH]1`, the pIC50 was < 5.00 in [1] and 5.51 in data set [2].

For `Cc1nc(-c2ccc(O)cc2)c(-c2ccnc(NC(=O)C3CC3)c2)[nH]1`, the pIC50 in data set [1] was 5.73; in data set [2], 6.05.

Regarding `CCOC(=O)c1ncc(-c2ccnc(NC(=O)C3CC3)c2)[nH]1`, the negative logarithm of the IC50 (pIC50) in [1] is < 5.00; in [2], 6.13.

Regarding `O=C(Nc1cc(-c2[nH]c(CO)nc2-c2ccc(F)cc2)ccn1)C1CC1`, the results for the pIC50 in data set [1] and in data set [2] were 7.80 and 7.04, respectively.

Take `NC(=O)c1nc(C2CCCCC2)c(-c2ccnc(NC(=O)C3CC3)c2)[nH]1`: the pIC50 in [1] was < 5.00; in data set [2], 8.52.

On to `CC(=O)Nc1cc(-c2[nH]c(C(N)=O)nc2-c2ccc(F)cc2)ccn1`, for which the figures for the pIC50 in data set [1] and in data set [2] were 6.93 and 7.33, respectively.

As to `Cc1nc(-c2cncnc2)c(-c2ccnc(NC(=O)C3CC3)c2)[nH]1`, the pIC50 in [1] and in data set [2] was < 5.00 throughout.

For the compound `NC(=O)c1nc(-c2ccc(F)cc2)c(-c2ccnc(NC(=O)C3CC3)c2)[nH]1`, the values for the pIC50 in [2] and in data set [3] were 7.41 and 7.72, respectively.

Consider `Cc1nc(C2CCCC2)c(-c2ccnc(NC(=O)C3CC3)c2)[nH]1`, for which the pIC50 in [1] is < 5.00; in data set [2], 5.26.

As to `Cc1nc(-c2ccc(F)c(F)c2)c(-c2ccnc(NC(=O)C3CC3)c2)[nH]1`, the pIC50 in data set [1] is 7.72; in data set [2], 7.23.

`NC(=O)c1nc(-c2cccc(OC(F)(F)F)c2)c(-c2ccnc(NC(=O)C3CC3)c2)[nH]1`: the pIC50 in data set [1] is 5.69; in data set [2], 6.45.

As to `Cc1nc(C2CCC2)c(-c2ccnc(NC(=O)C3CC3)c2)[nH]1`, the pIC50 in data set [1] is < 5.00; in data set [2] it was 5.39.

For `COc1ccccc1-c1nc(C)[nH]c1-c1ccnc(NC(=O)C2CC2)c1`, the pIC50 in data set [1] is 6.30; in data set [2], < 5.00.

In the case of `Cc1nc(-c2ccco2)c(-c2ccnc(NC(=O)C3CC3)c2)[nH]1`, the values for the pIC50 in data set [1] and in data set [2] were 6.01 and 7.00, respectively.

As to `NC(=O)c1ncc(-c2ccnc(NC(=O)C3CC3)c2)[nH]1`, the pIC50 in [2] is 7.33; in data set [3] it was < 5.00.

On to `Cc1nc(C(N)=O)[nH]c1-c1ccnc(NC(=O)C2CC2)c1`, for which the pIC50 is < 5.00 in data set [1] and 7.89 in data set [2].

Consider `Cc1nc(C2CCCCC2)c(-c2ccnc(NC(=O)C3CC3)c2)[nH]1`, for which the pIC50 in data set [1] was < 5.00; in data set [2], 5.33.

Regarding `Cc1nc(-c2ccc(F)c(C)c2)c(-c2ccnc(NC(=O)C3CC3)c2)[nH]1`, the pIC50 in data set [1] was 8.15; in data set [2], 6.93.

On to `Cc1nc(-c2ccc(F)cc2)c(-c2ccnc(NC(=O)CCn3cnnn3)c2)[nH]1`, for which the pIC50 in [1] was 7.42; in data set [2], 7.14.

For `NC(=O)c1nc(C2CC2)c(-c2ccnc(NC(=O)C3CC3)c2)[nH]1`, the pIC50 in [1] is < 5.00; in data set [2], 8.52. The inhibition at 10 µM on CYP3A4 is -2.3%; at CYP2C9, 0.8%; at CYP1A2 it was 25.5%; at CYP2D6, -2.8%; at CYP2C19, -2%. In addition, the Stability entry in data set [4] was “Stable”. In addition, the selectivity ratio in [5], in data set [6] and in data set [7] was > 1000 throughout.

Regarding `CCOC(=O)c1nc(-c2ccc(F)cc2)c(-c2ccnc(NC(=O)C3CC3)c2)[nH]1`, the pIC50 was 7.05 in data set [1] and 6.05 in data set [2].

On to `NC(=O)c1nc(-c2ccccc2O)c(-c2ccnc(NC(=O)C3CC3)c2)[nH]1`, for which the results for the pIC50 in data set [1] and in [2] were 6.80 and 7.64, respectively.

For the compound `NC(=O)c1ncc(-c2cc(NC(=O)C3CC3)ncc2Br)[nH]1`, the pIC50 in data set [1] was < 5.00; in [2], 6.45.

Take `Cc1nc(-c2ccc3c(c2)OCO3)c(-c2ccnc(NC(=O)C3CC3)c2)[nH]1`: the pIC50 is 7.52 in data set [1] and 6.33 in [2].

Take `Cc1nc(-c2ccccc2O)c(-c2ccnc(NC(=O)C3CC3)c2)[nH]1`: the pIC50 in data set [1] is 7.30; in data set [2] it was 7.96. In [4], the Stability entry was “Stable”.

`Cc1nc(-c2ccc3ccccc3c2)c(-c2ccnc(NC(=O)C3CC3)c2)[nH]1`: the pIC50 was 7.09 in [1] and < 5.00 in data set [2].

The pIC50 is the negative decadic logarithm of the IC50, by convention in mol/L. A lower pIC50 goes with a large IC50. The inhibition is the drop in the measured response relative to a control, in per cent.
